According to ChEMBL document CHEMBL5725202, “Substituted bicyclic compounds” (2016):

Biological target: Sphingosine 1-phosphate receptor 1 (Homo sapiens, UniProt P21453)
Assay: Binding Assay: Membranes were prepared from CHO cells expressing human S1P1. Cells pellets (1x10^9 cells/pellet) were suspended in buffer containing 20 mM HEPES (4-(2-hydroxyethyl)-1-piperazineethanesulfonic acid), pH 7.5, 50 mM NaCl, 2 mM EDTA (Ethylenediaminetetraacetic acid) and Protease Inhibitor cocktail (Roche), and disrupted on ice using the Polytron homogenizer. The homogenate was centrifuged at 20,000 rpm (48,000 g) and the supernatant was discarded. The membrane pellets were resuspended in buffer containing 50 mM HEPES, pH 7.5, 100 mM NaCl, 1 mM MgCl2, 2 mM EDTA and stored in aliquots at -80° C. after protein concentration determination.Membranes (2 ug/well) and 0.03 nM final concentration of 33P-S1P ligand (1 mCi/ml, Perkin elmer or American Radiolabeled Chemicals) diluted in assay buffer (50 mM HEPES, pH7.4, 5 mM MgCl2, 1 mM CaCl2, 0.5% fatty acid free BSA (bovine serum albumin), 1 mM NaF) were added to the compound plates (384 Falcon v-bottom plate (0.5 ul/well in a 11 point, 3-fold dilution). Binding was performed for 45 minutes at room temperature, terminated by collecting the membranes onto 384-well Millipore FB filter plates, and radioactivity was measured by TOPCOUNT. The competition data of the test compounds over a range of concentrations was plotted as percentage inhibition of radioligand specific binding.

Sequence of Sphingosine 1-phosphate receptor 1 (P21453 whole entry): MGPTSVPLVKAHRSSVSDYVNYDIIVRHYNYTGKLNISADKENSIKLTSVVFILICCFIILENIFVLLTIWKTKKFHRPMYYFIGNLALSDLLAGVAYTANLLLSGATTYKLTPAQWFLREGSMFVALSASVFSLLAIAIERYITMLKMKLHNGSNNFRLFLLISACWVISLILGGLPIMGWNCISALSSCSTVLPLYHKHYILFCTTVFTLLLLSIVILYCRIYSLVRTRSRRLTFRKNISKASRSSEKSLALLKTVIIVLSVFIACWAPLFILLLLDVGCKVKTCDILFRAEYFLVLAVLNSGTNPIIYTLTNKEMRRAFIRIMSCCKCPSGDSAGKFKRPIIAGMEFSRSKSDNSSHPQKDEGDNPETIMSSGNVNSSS

For CCCCCC[C@H]1Cc2ccc([C@@H]3CC[C@](N)(COP(=O)(O)O)C3)cc2CO1, the IC50 was under 10 nM.
